Source: PubChem BioAssay (NCI)
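These data come from cells grown in 96-well plates and exposed to compound for 48 hours at five concentrations. The concentration for full growth arrest is given as TGI.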

Key:
Experiment in all cases: growth of human tumour cells (NCI), 48 h
[1] = tested on: A498 renal
[2] = tested on: HOP-92 NSCLC
[3] = tested on: HS 578T breast
[4] = tested on: NCI-H460 lung
[5] = tested on: OVCAR-4 ovarian
[6] = tested on: OVCAR-5 ovarian
[7] = tested on: PC-3 prostate
[8] = tested on: T-47D breast
[9] = tested on: U251 CNS
[10] = tested on: UACC-62 melanoma

| SMILES | TGI [1] [µM] | TGI [2] [µM] | TGI [3] [µM] | TGI [4] [µM] | TGI [5] [µM] | TGI [6] [µM] | TGI [7] [µM] | TGI [8] [µM] | TGI [9] [µM] | TGI [10] [µM] |
| --- | --- | --- | --- | --- | --- | --- | --- | --- | --- | --- |
| O=c1c2ncn(C3CCCCO3)c2n(-c2ccccc2)c(=S)n1-c1ccccc1 (stereo not given) | 89.6 | 31 | 53.6 | > 100 | > 87.2 | > 76.5 | > 100 | > 77.3 | > 74.2 | 56.5 |
| O=c1[nH]nc(-c2ccc([N+](=O)[O-])cc2)n1/N=C/c1ccc([N+](=O)[O-])cc1 | > 100 | > 100 | > 100 | > 100 | > 100 | > 100 | > 100 | > 100 | > 100 | > 100 |
| CCOP(=O)(CC1CC(O)(CNc2cc(Cl)nc(N)n2)C1)OCC (stereo not given) | > 100 | > 100 | > 100 | > 100 | > 100 | > 100 | > 100 | > 100 | > 100 | > 100 |
| COc1ccc(-c2cc(C3CC3)nc(SCC(=O)O)c2C#N)cc1 | > 100 | > 100 | > 100 | > 100 | > 100 | > 100 | > 100 | > 100 | > 100 | > 100 |
| CCCN=C1Nc2ccccc2[C@@H]2N(C)c3ccccc3C(C)C[C@]12C (stereo not given in full) | 28.6 | – | 41.9 | 55.4 | 23.4 | 46.8 | 40.8 | 49.6 | – | 33.2 |
| CCN(CC)c1ccc(/C=c2\nc(-c3ccccc3)n3c2nc2ccccc23)cc1 | > 100 | > 100 | > 100 | > 100 | 32.2 | > 100 | 8.7 | 5.84 | > 100 | 30.9 |
| N#CCN1CCCCCc2ccccc21 | – | > 100 | > 100 | > 100 | > 100 | > 100 | – | > 100 | > 100 | > 100 |
| N#Cc1nc(C(F)(F)F)oc1N | > 100 | > 100 | > 100 | > 100 | > 100 | > 100 | > 100 | > 100 | > 100 | > 100 |
| Cc1ccc(S(=O)(=O)Nc2nc3ccccc3c(=O)n2C2CCCCC2)cc1 | > 100 | > 100 | > 100 | > 100 | > 100 | > 100 | > 100 | > 100 | > 100 | > 100 |
| CN(C)c1ccc(/C=N/n2c(-c3ccccc3)nc3ccccc3c2=O)cc1 | > 100 | > 100 | 92.4 | > 100 | > 100 | > 100 | > 100 | > 100 | > 100 | > 100 |
| Nc1nc2cc(CNc3ccc(C(=O)O)cc3)ccc2nc1-c1ccccc1 | > 100 | – | > 100 | > 100 | > 100 | > 100 | > 100 | > 100 | > 100 | – |
| C\C=C/C=C/C=C/C(=O)O | > 100 | – | – | > 100 | > 100 | > 100 | – | – | > 100 | > 100 |
| NNC(=O)Cc1cccnc1 | > 100 | > 100 | > 100 | > 100 | > 100 | > 100 | > 100 | > 100 | > 100 | > 100 |
| NC(CCl)=NC1CN2CCC1CC2 (stereo not given) | > 100 | > 100 | > 100 | > 100 | > 100 | > 100 | > 100 | > 100 | > 100 | > 100 |
| COc1ccc2c(c1)C1Oc3ccccc3CC1(O)CO2 (stereo not given) | > 100 | > 100 | – | – | > 100 | > 100 | > 100 | > 100 | > 100 | > 100 |
| O=C1C(Cl)=C(Oc2ccc([N+](=O)[O-])cc2)C(=O)c2c(O)ccc(O)c21 | > 100 | 56.6 | > 100 | > 100 | > 100 | > 100 | > 100 | > 77.7 | > 100 | > 100 |
| O=C1C(=Cc2ccco2)C(=O)C2CCCCC12 (stereo not given) | > 100 | > 100 | > 100 | > 100 | > 100 | > 100 | > 100 | > 100 | > 100 | > 100 |
| O=C1CSC(c2cccc(Cl)c2)N1c1c(O)c(Cl)cc(Br)c1Cl (stereo not given) | > 100 | 29.9 | > 100 | > 100 | 28.1 | > 100 | > 100 | 41.7 | 72.3 | 56.9 |
| CCOC(O)C(F)(F)F (stereo not given) | – | > 100 | > 100 | > 100 | – | – | > 100 | > 100 | > 100 | – |
| Fc1ccc(C2NC(=S)NC3=C2CCOc2c3ccc3ccccc23)cc1 (stereo not given) | 79.5 | > 100 | > 100 | > 100 | > 100 | > 100 | > 100 | 9.44 | – | – |
| N#CN=C1c2ccccc2C(=NC#N)c2cc(CO)ccc21 | 74.4 | 77 | > 100 | > 100 | > 100 | > 100 | > 100 | 89.2 | > 100 | – |
| CCn1nc(-c2ccccc2)c2c1N(C)c1ccccc1-n1c(-c3ccccc3)nnc1-2 | 11.2 | 35.9 | 52.4 | 29.2 | – | 33.5 | 27.7 | 46.9 | 28.2 | 26.6 |
